Assay results published in patent US5763413A, “Lewis-associated compound, process for producing the same, and anti-inflammatory” (MECT Corporation, priority 1993, dated 1998).

Assays:
[1] = test system: adhesion of HL-60 cells to HUVEC monolayers (ELAM-1); experiment: Effect on the adhesion of HL-60 cells to HUVEC monolayers mediated by an adhesion molecule; assay type: cell-based, human; settings: 10 μg/ml final, in lecithin/cholesterol liposome, IL-1β-stimulated HUVEC
Procedure: (Effect on the Adhesion of Cultured Cells Mediated by a Adhesion Molecule)
(2) Experimental methods and materials
HUVECs (Human umbilical vein endothelial cells: KURABO) were suspended in E-GM UV medium at the concentration of 5×10^3 cells/ml, 100-μl each aliquot thereof was distributed into a 96-well microplate and incubated in a 5% CO2 containing air at 37° C. with the medium being replaced fresh 24 h later. The culture was continued for another 5 days, and the following experiment was performed after the confluent growth of the cells was confirmed.
In order to express ELAM-1 on HUVEC monolayers, IL-1β (IL-1β, Human, Recombinant: Genzym) was added to said culture (final concentration, 10 units/ml) and incubated for 4 h, then the test compound (final concentration, 10 μg/ml) containing liposome prepared with lecithin and cholesterol was added and further incubated or 1 h. Then human promyelocytic leukemia cell line […] which had been cultured was added to said culture at the final concentration of 5×10^5 cells/ml and incubated for 15 min. After washing said culture with the culture medium 3 times to remove the non-adhering HL-60 cells, said culture was gently stirred overnight to strip HL-60 cells adhering to HUVEC monolayers and count. Percent inhibition of adhesion (%) was calculated from the following equation [Margaret, J. et al., Proc. Natl. Acad. Sci. USA, 88, 6224 (1991)]. […]

[2] = Simple acute toxicity test (intravenous injection); assay type: in vivo, male mice of ddY strain; settings: 50 mg/kg, ddY mice; for Mortality: i.v. (tail vein); for mortality (in words): i.v.
Procedure: Example of Test 1 (Simple Acute Toxicity Test)
The simple acute toxicity test was carried out by an intravenous injection of compounds of the present invention.
Into the tail vein of male mice of ddY strain weighing 18~20 g which have been kept under the conditions at the temperature of 23°±1° C. and in the humidity of 55 ±7% were injected a solution of the compound of the present invention dissolved in the physiological saline containing the desired dose per 20 g body weighing 0.2 ml. Two dosages of which were 50 mg/kg and 500 mg/kg body weight were used.

passive Arthus reaction [3] = experiment: Anti-inflammatory activity test: passive Arthus reaction (Example of Test 2); assay type: in vivo, male guinea pigs of the Hartley strain; settings: Table 21; 0.1 mg/kg i.v., 30 min before antigen
Procedure: Example of Test 2 (Anti-inflammatory Activity Test)
(§1) Male guinea pigs of the Hartley strain weighing 200~250 g were used.
(2) Experimental Materials
(§2) The anti-ovalbumin rabbit serum (PCA titer=1/80,000) and ovalbumin were used as the antiserum and antigen, respectively.
(§3) The passive Arthus reaction was performed according to the method of Katayama et al. [Katayama, S. et al., Arzeim-Forsch., 31, 1196 (1981)]. That is, guinea pigs were sensitized by an intravenous injection of said anti-ovalbumin rabbit serum (2.5 ml/kg). Thirty minutes after the injection, the Arthus reaction was induced by the intradermal injection of an antigen solution (0.05 ml) containing 0.10 mg of ovalbumin to the abdomen shaved the day before. Two hours after the antigen challenge, the area of intradermal bleeding was measured and used as the index representing the grade of inflammatory reaction. Test compounds were intravenously injected 30 min before the antigen injection. Four guinea pigs per each group were used.
(§4) The percent inhibi- is expressed as the bleeding area of the challenged site (%) of the animal group injected with each compound relative to that (100%) of the group administered with the physiological saline.

passive Arthus reaction [4] = experiment: Anti-inflammatory activity test, carried out as Example of Test 2 (Example of Test 3); assay type: in vivo, male guinea pigs of the Hartley strain; settings: Table 22, i.v.
Procedure: as §1, §2, §3, §4
The anti-inflammatory activity test of compounds of the present invention was similarly carried out as in the case of Example of Test 2.

| SMILES | Adhesion inhibitory activity [1] | Mortality [2] | mortality (in words) [2] | Percent inhibition (passive Arthus reaction) (passive Arthus reaction [3]) | Percent inhibition (passive Arthus reaction) (passive Arthus reaction [4]; 0.01 mg/kg) | Percent inhibition (passive Arthus reaction) (passive Arthus reaction [4]; 0.1 mg/kg) | Percent inhibition (passive Arthus reaction) (passive Arthus reaction [4]; 0.001 (unit of dose not given)) |
| --- | --- | --- | --- | --- | --- | --- | --- |
| CCCCCCCCCCCCCC=CC(O)C(COC1OC(CO)C(OC2OC(CO)C(O)C(OC3OC(CO)C(OC4OC(CO)C(O)C(OS(=O)(=O)[O-])C4OS(=O)(=O)[O-])C(OC4OC(C)C(O)C(O)C4O)C3NC(C)=O)C2O)C(O)C1O)NC(=O)CCCCCCCCCCCCCCCCCCCCCCC.[Na+].[Na+] (centres unmarked) [Compound 77] | 21.0 ± 15.0% | 0/3 | no mortality was observed | 40.4 ± 5.1% | – | – | – |
| CCCCCCCCCCCCCC=CC(O)C(COC1OC(CO)C(OC2OC(CO)C(O)C(OC3OC(CO)C(OC4OC(CO)C(O)C(OS(=O)(=O)[O-])C4O)C(OC4OC(C)C(O)C(O)C4O)C3NC(C)=O)C2O)C(O)C1O)NC(=O)CCCCCCCCCCCCCCCCCCCCCCC.[Na+] (centres unmarked) [Compound 78] | 20.7 ± 3.7% | 0/3 | no mortality was observed | 32.5 ± 7.3% | – | – | – |
| CCCOC1OC(CO)C(OC2OC(C)C(O)C(O)C2O)C(OC2OC(CO)C(OS(=O)(=O)[O-])C(O)C2O)C1NC(C)=O.[Na+] (centres unmarked) [Compound 190] | – | – | – | – | 79.3 ± 4.7% | 76.9 ± 4.1% | 12.7 ± 6.3% |
